Source: paper PMC8400955 (Pharmaceuticals, 2021)

Experiments:
[1] = 4-week repeat-dose toxicity/TK study in dogs; format: in vivo, beagle dogs; settings: for AUC(0-t) / Cmax / Tmax: beagle, dog, plasma, po
Procedure: The TK of ZB716 was investigated in a 4-week repeat-dose toxicity study in dogs. Groups of dogs (n = 3/sex/group) were orally administered ZB716 (5% EtOH, 15% PG, 5% Solutol, and 75% of 40% HP-β-CD in DI water) at dose levels of 25, 100, and 200 mg/kg/day for 4 weeks. The plasma concentration of ZB716 was measured at various times up through to 24 h post-dose on days 1 and 28. […] The lower exposure in females given 200 mg/kg/day on day 1 was likely due to emesis noted in all females in this group.
Four-to-six-week-old Sprague Dawley rats (Crl: CD (SD)) (SPF/VAF) were purchased from Beijing Vital River Laboratory Animal Technology, Co. Ltd.). Six-month-old beagle dogs were purchased from Beijing Marshall Biotechnology Co. Ltd. Animals were quarantined/acclimated for 2–6 weeks prior to dose initiation. Both Sprague Dawley rats and beagle dogs were given oral administration of ZB716 (20% PG, 5% Solutol, and 75% of 40% HP-β-CD in water) at different dose levels. After treatment with the test articles, whole blood was collected from each study animal by puncture of the tail vein (0.4 mL of whole blood from rats) and/or the peripheral vein (0.6 mL of whole blood from dogs) into tubes containing K2EDTA at each timepoint: pre-dose, and 0.5, 1, 2, 4, 8, and 24 h post-dose. The plasma samples were divided into 2 aliquots (approximately equal in volume) and stored frozen at −75 ± 15 °C within 2 h of the collection until analysis at Pharmaron, China.
The stock solution of ZB716 (5.0 mg/mL) and ZB716-d6 (1 mg/mL) in ACN:DI Water = 1:1 was prepared and stored at −20 ± 5 °C. The desired serial concentrations of working reference analyte solutions were achieved by diluting a stock analyte solution with 50% acetonitrile (0.1% formic acid) in water solution. The bioanalytical LC–MS/MS method was validated for quantitative determination of ZB716 in Sprague Dawley rat plasma and beagle dog plasma, with acceptable selectivity, sensitivity, calibration curve, precision, and accuracy. This method is applicable for the determination of ZB716 in Sprague Dawley rat plasma and beagle dog plasma, with a lower limit of quantification of 20.0 ng/mL, and an upper limit of quantification of 10,000 ng/mL.
Five microliters of diluted supernatant was injected into the LC–MS/MS system (Shimadzu LC30AD HPLC system with a SynergiTM 4 μm Fusion-RP 80 Å (50 × 2 mm) column using gradient elution and a Triple Quad 5500 mass spectrometer) for quantitative analysis. The mobile phases used were 0.1% formic acid in deionized water and 0.1% formic acid in acetonitrile. The pharmacokinetic parameters T1/2 (the biological half-life), Cmax (maximal concentration), Tmax (time at which Cmax is observed), and AUC (area under the plasma concentration–time curve) were calculated from the plasma concentration versus time data using WinNonlin (Phoenix^TM, version 8.1, Mountain View, CA, USA). All PK studies were conducted by Pharmaron in Beijing, China.

[2] = target: T1, CYP1A2 (Homo sapiens, UniProt P05177); assay: CYP phenotyping, recombinant CYP1A2
T1 sequence (P05177 1-516): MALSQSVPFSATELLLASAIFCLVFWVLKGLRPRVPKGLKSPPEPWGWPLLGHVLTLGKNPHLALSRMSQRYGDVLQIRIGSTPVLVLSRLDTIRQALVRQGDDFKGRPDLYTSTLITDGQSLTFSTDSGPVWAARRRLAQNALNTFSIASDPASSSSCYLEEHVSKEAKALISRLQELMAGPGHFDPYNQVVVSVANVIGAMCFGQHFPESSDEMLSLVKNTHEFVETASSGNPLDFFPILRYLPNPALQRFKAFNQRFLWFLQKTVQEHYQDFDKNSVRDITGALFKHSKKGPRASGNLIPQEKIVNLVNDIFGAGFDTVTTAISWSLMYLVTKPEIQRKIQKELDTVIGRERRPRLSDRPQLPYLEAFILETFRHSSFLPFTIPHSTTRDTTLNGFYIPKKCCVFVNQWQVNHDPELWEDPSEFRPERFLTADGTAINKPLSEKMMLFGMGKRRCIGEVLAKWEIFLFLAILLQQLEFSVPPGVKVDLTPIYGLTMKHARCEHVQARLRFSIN
Procedure: Bactosomes prepared from E. coli that heterologously expressed individual human CYP isoforms together with human CYP reductase were obtained from CYPEX LTD (Scotland, UK), and stored at −80 °C prior to use. […] Timepoints were taken at 0, 5, 10, 15, 20, and 30 min. Substrate disappearance was used to calculate intrinsic clearance (Clint) and half-life (t1/2). All incubations were performed in triplicate. […] The chemical inhibitors for CYP1A2, 2A6, 2B6, 2C8, 2C9, 2C19, 2D6, and 3A4 were furafylline, tranylcypromine, ticlopidine, montelukast, sulfaphenazole, N-3-benzylnirvanol, quinidine, and ketoconazole, respectively. Timepoints were collected at 0, 15, 30, 45, and 60 min, and the remaining percentage of the parent drug at each timepoint was calculated (the calculation details are available in the Supplementary Materials). All incubations were performed in triplicate.
The slope, k, was determined by linear regression of the natural logarithm of percent parent disappearance vs. incubation time curve. Peak areas for test article and internal standard were determined from extracted ion chromatograms. The peak area ratio was used to calculated for the results.
The half-life value (t1/2 rCYPi) was determined from the slope value:
Conversion of the t1/2 rCYPi (in min) into the intrinsic clearance (Clint rCYPi in μL/min/pmol) was done using the following equation: […]

[3] = female, 25 mg/kg/day, day 1, PO 25 mg/kg/day, F
[4] = female, 25 mg/kg/day, day 28, PO 25 mg/kg/day, F
[5] = female, 100 mg/kg/day, day 1, PO 100 mg/kg/day, F
[6] = female, 100 mg/kg/day, day 28, PO 100 mg/kg/day, F
[7] = female, 200 mg/kg/day, day 1, PO 200 mg/kg/day, F
[8] = female, 200 mg/kg/day, day 28, PO 200 mg/kg/day, F
[9] = male, 25 mg/kg/day, day 1, PO 25 mg/kg/day, M
[10] = male, 25 mg/kg/day, day 28, PO 25 mg/kg/day, M
[11] = male, 100 mg/kg/day, day 1, PO 100 mg/kg/day, M
[12] = male, 100 mg/kg/day, day 28, PO 100 mg/kg/day, M
[13] = male, 200 mg/kg/day, day 1, PO 200 mg/kg/day, M
[14] = male, 200 mg/kg/day, day 28, PO 200 mg/kg/day, M

C[C@]12CC[C@@H]3c4ccc(B(O)O)cc4C[C@@H](CCCCCCCCC[S+]([O-])CCCC(F)(F)C(F)(F)F)[C@H]3[C@@H]1CC[C@@H]2O (stereo partly drawn) [ZB716, fulvestrant-3-boronic acid]
AUC(0-t) [1, 3]: 3.88 µg·h/mL
Cmax [1, 3]: 0.772 µg/mL
Tmax [1, 3]: 1 h
AUC(0-t) [1, 4]: 8 µg·h/mL
Cmax [1, 4]: 1.59 µg/mL
Tmax [1, 4]: 1 h
AUC(0-t) [1, 5]: 4.49 µg·h/mL
Cmax [1, 5]: 0.997 µg/mL
Tmax [1, 5]: 1 h
AUC(0-t) [1, 6]: 9.65 µg·h/mL
Cmax [1, 6]: 1.87 µg/mL
Tmax [1, 6]: 2 h
AUC(0-t) [1, 7]: 2.72 µg·h/mL
Cmax [1, 7]: 0.583 µg/mL
Tmax [1, 7]: 2 h
AUC(0-t) [1, 8]: 14.9 µg·h/mL
Cmax [1, 8]: 1.81 µg/mL
Tmax [1, 8]: 2 h
AUC(0-t) [1, 9]: 1.98 µg·h/mL
Cmax [1, 9]: 0.691 µg/mL
Tmax [1, 9]: 0.5 h
AUC(0-t) [1, 10]: 4.33 µg·h/mL
Cmax [1, 10]: 1.39 µg/mL
Tmax [1, 10]: 1 h
AUC(0-t) [1, 11]: 4.57 µg·h/mL
Cmax [1, 11]: 1.4 µg/mL
Tmax [1, 11]: 1 h
AUC(0-t) [1, 12]: 12.4 µg·h/mL
Cmax [1, 12]: 3.34 µg/mL
Tmax [1, 12]: 2 h
AUC(0-t) [1, 13]: 7.88 µg·h/mL
Cmax [1, 13]: 1.04 µg/mL
Tmax [1, 13]: 2 h
AUC(0-t) [1, 14]: 11 µg·h/mL
Cmax [1, 14]: 2.13 µg/mL
Tmax [1, 14]: 2 h
tolerability ([1]; oral once daily, doses up to 200 mg/kg/day for 28 consecutive days): tolerated
half-life at 2 µM ([2]; human): 0.27 ± 0.0367 h
Clint ([2]; recombinant CYP1A2, 2 µM ZB716): 0.866 ± 0.120 µL/min/pmol CYP
